These results are taken from patent US5952296A, “Method of using relaxin as therapeutic or preventing agent” (priority 1993, dated 1999).

Entries after “also recorded” stand apart in the source; their conditions may differ. No end group written: not given here.

Experiment [1] concerns guinea pig hearts, isolated and perfused in vitro. The experiment in a line: Coronary flow in isolated guinea pig hearts perfused in a Langendorff apparatus. How it is done:
(§1) 1-a The coronary system was deemed a suitable model for studying the influence of RLX on dilation of blood vessels. Rat and guinea pig hearts, isolated and perfused in vitro in a Langendorff apparatus, were used to evaluate whether RLX causes changes in the coronary flow. After 30 minutes stabilization, in some experiments RLX (30 ng/ml) was added to the perfusion fluid and perfusion lasted for 20 minutes. In other experiments,RLX (30 ng/ml) was injected as a bolus into the aortic cannula. The perfusates were collected and the coronary flow determined. […] The percentage of basal flow variation is depicted versus time. In these diagrams (as well as in the next ones) values are expressed as mean ± SE (standard error). Statistic analyses were done calculating the Student's test (P), whose value is shown in the diagrams.
To clarify the mechanisms of action of RLX on dilation of coronary vessels, nitric oxide (NO) production and histamine release were assayed in the perfused guinea pig hearts. NO, which is known to be a powerful vasodilatory agent, was measured by determination of nitrites (stable end-products of NO metabolism) in the perfusates. […]

The test system of the next experiment is BASM cells. The experiment in a line: Bovine aorta smooth muscle (BASM) cells cultured in vitro: actin cytoskeleton and intracellular cGMP. The format is cell-based. The settings on record: for increase in intracellular cGMP levels: BASM cells. The source says: 1-b Smooth muscle cells of the vascular wall obtained from bovine aorta (BASM) and cultured in vitro are a suitable in vitro model for understanding the mode of action of RLX on blood vessels.
[…] RLX caused a striking concentration-related increase in intracellular cGMP levels (400% and 900% over the values of the untreated cultures).

The subject of experiment [2] is isolated serosal rat and guinea pig MCs and rat mesenteric MCs. The experiment in a line: Mast cell histamine release, degranulation and intracellular Ca2+. In kind it is cell-based. The note with it: for calcium-ionophore-induced and anaphylactic histamine release: mast cells stimulated by ionophore or sensitized by allergen. An excerpt: 1-c Mast cells (MCs) are known to produce and release vasoactive substances. It has therefore been investigated whether RLX also exerts its vasodilatory action by influencing MC function. […] This effect is mediated by a stimulation of NO production. In fact, the RLX-induced depression of histamine release evoked by calcium ionophore was prevented by MeArg and potentiated by SOD. Moreover, RLX blunted the rise in the intracellular Ca^2+ levels evoked by calcium ionophore in a concentration-related fashion (41% decrease with 10 ng/mL RLX and 97% decrease with 100 ng/mL RLX). From these findings, it emerges that the vasodilatory action of RLX is not due to histamine release by MCs but, rather, to production of the vasodilatory agent NO, in keeping with its effect in the coronary system. The above results are summarized in the diagrams A and B in FIG. 4.
The degree of inhibition was the function of the dose of relaxin being used.

Experiment [3] concerns mesenteric artery of spontaneously hypertensive rats. The settings on record: two days infusion; cited from earlier work.
The nature of experiment [4]: Blood osmolality and sodium concentration in rats after RLX. In kind it is in vivo, rat. The settings on record: rats after RLX (from 142±4 before).
The next experiment relates to male rats. The experiment in a line: Plasma hemostasis factors, circulating platelets and megacaryocytes in male rats injected intraperitoneally with RLX. In kind it is in vivo, rat. How it is done: A second series of experiments was performed in male rats injected intraperitoneally with RLX and sacrificed 20 minutes later. Before sacrifice, blood and plasma samples were collected for studying plasma hemostasis factors and number of circulating platelets; upon sacrifice, spleen specimens were taken for studying the morphology of megacaryocytes.

For experiment [5], the system named is perfused guinea pig hearts. The experiment in a line: Nitric oxide (nitrite) production and histamine release in perfused guinea pig hearts. How it is done: To clarify the mechanisms of action of RLX on dilation of coronary vessels, nitric oxide (NO) production and histamine release were assayed in the perfused guinea pig hearts. NO, which is known to be a powerful vasodilatory agent, was measured by determination of nitrites (stable end-products of NO metabolism) in the perfusates. In some experiments, N^W -monomethyl L-arginine (MeArg), a NO-synthase inhibitor, was added to the perfusion fluid before giving RLX as a bolus; in other experiments,guinea pigs were pretreated with E.coli lipopolysaccharide (LPS), an inducer of NO-synthase activity before heart isolation and perfusion. […] This was further confirmed by the experiments with MeArg and LPS, drugs that blunted and enhanced the RLX-induced increase in the coronary flow, respectively (FIG. 2).

For experiment [6], the system named is isolated platelets from human volunteers and rabbits. The experiment in a line: Aggregation of isolated platelets incubated with RLX and stimulated with proaggregants. The format is cell-based, human and rabbit. How it is done: A first series of experiments was carried out on isolated platelets from human volunteers and rabbits, incubated with RLX and then stimulated with proaggregants.
This effect was concentration-relatedand attained a maximum of 80% inhibition with 100 ng/mL RLX.

The next experiment relates to atrial myocardiocytes. The experiment in a line: ANP secretion from atrial myocardiocytes of rats after intraperitoneal RLX. In kind it is in vivo, rat. Here is the method: 3-a ANP secretion was studied in rats following intraperitoneal administration of 10 μg RLX. It is known that atrial myocardiocytes have an endocrine function, being able to synthesize and release a peptide, called atrial natriuretic peptide (ANP) that, besides its firstly recognized effect in stimulating natriuresis, has other properties such as a negative action on blood pressure due to a decrease in the vascular tone and a shift of the plasma fluid in the interstitial compartment. A possible relationship has therefore been searched for between RLX and ANP by evaluating the amount of immunoreactive ANP and the ultrastructural features of atrial myocardiocytes of rats upon RLX treatment. […] No appreciable changes were found in the extension of the ergastoplasm and Golgi apparatus. […] Determinations of ANP content in rat atria homogenates by RIA before and after in vivo administration of RLX are in agreement with the EM findings.

The subject of the next experiment is deep artery of the penis. The experiment in a line: Blood flow in the deep artery of the penis by echo-doppler after injection into the cavernous bodies. The format is in vivo, human. How it is done: 1-d The blood flow in the penis is influenced by local NO production. Based on the ability of RLX to stimulate NO synthesis, the effect of the peptide on the blood flow in the deep artery of the penis was investigated. RLX (sterilized by microfiltration) was injected into the cavernous bodies of 4 human normal volunteers at a dose of 10 ng, and the blood flow measured by an echo-doppler Acuson 128, 1-6 minutes after the injection. […] In FIG. 5 the echo-doppler images are reported, showing the flow under normal conditions (diagram A), 1 min. after RLX injection (diagram B) and 5 min. after RLX injection (diagram C).

Experiment [7] in a line: Cholesterol and triglycerides in peripheral blood serum. The format is in vivo. The note with it: peripheral blood serum after RLX administration.
Experiment [8] concerns rat hearts, isolated and perfused in vitro. The experiment in a line: Coronary flow in isolated rat hearts perfused in a Langendorff apparatus. The note with it: RLX 30 ng/ml in perfusion fluid for 20 minutes or as bolus into the aortic cannula; rat heart (FIG. 1A). Here is the method: as §1
Another experiment relates to heart atria. The settings on record: Osheroff et al.; cited from earlier work.

In the case of `CNC(=N)NCCC[C@H](N)C(=O)O` [MeArg, N^W -monomethyl L-arginine, reference compound], the “effect on the RLX-induced increase in the coronary flow” value in experiment [1] (MeArg added to perfusion fluid before RLX bolus, LPS pretreatment of guinea pigs before heart isolation) is listed as “blunted”. Further, the “effect on the RLX-induced increase in cGMP” value in the experiment on BASM cells (pretreatment of BASM cells) is “depression”. For the same compound, the “effect on the RLX-induced depression of histamine release evoked by calcium ionophore” value in experiment [2] (mast cells) was “prevented”.

As to “rat RLX: rat relaxin infused for two days in a cited 1989 study (Relaxin B chain RVSEEWMDQVIQVCGRGYARAWIEVCGASVGRLAL; Relaxin A chain QSGALLSEQCCHIGCTRRSIAKLC; ends and bridges not checked; cysteine pairing not given here; UniProt P01347 23-57; P01347 163-186, looked up)”, the “vasoconstrictive effects of norepinephrine and vasopressin” value in experiment [3] is recorded as “blunted”.

For relaxin [RLX], the sodium concentration in experiment [4] is on record as 136±2 mEq/1. Moreover, in [1] (RLX 30 ng/ml in perfusion fluid for 20 minutes or as bolus into the aortic cannula, guinea pig heart (FIG. 1B)), the coronary flow result is recorded as “increases significantly”. Also, in the experiment on male rats (rat plasma, RLX-Treated), the “F 1 + 2” value came out at 0.028 ± 0.01 nM/mL, the PT is 15.1 ± 0.5 s, the aPTT is 19 ± 2.5 s and the “tPA Ag” value stood at 0.52 ± 0.1 ng/mL. For the same compound, in the experiment with male rats (rat plasma, RLX-Treated, 20 minutes after intraperitoneal injection), the Fibrinogen amounted to 185 ± 26 mg/dL. This compound gave a tPA activity in the experiment with male rats (rat plasma, RLX-Treated, P < 0.001) of 0.37 ± 0.03 U/mL. The PAI-1 activity with male rats (rat plasma, RLX-Treated, P < 0.05) is on record as 11.7 ± 0.7 U/mL. Moreover, in the experiment on male rats (rats), the “coagulation factors such as fibrinogen and prothrombin fragments F1+2” value is recorded as “slight decrease”; the “plasma levels of tPA and PAI-1” value is “significant, concentration-dependant increase”. Further, the “number of circulating platelets” value in the experiment on male rats (rats, in vivo) is on record as “reduction in the number of circulating platelets”. In addition, the “amount of histamine in the perfusates” value in experiment [5] is on record as “significantly reduced”. Besides, the “nitrite amounts in the perfusates (NO production)” value in [5] (versus basal value) is given as “two-fold increase over the basal value”. Besides, the “maximum inhibition of platelet aggregation induced by proaggregants” value in experiment [6] (100 ng/mL RLX) worked out at 80%. Further, in experiment [6] (FIG. 7), the “thromboxane production in platelets” value is on record as “inhibition of thromboxane production”. The “endogenous NO synthesis in platelets” value in experiment [6] (FIG. 8) is recorded as “stimulation of endogenous NO synthesis”. For the same compound, the “intracellular cGMP in platelets” value in experiment [6] (FIG. 9) was “rise in intracellular cGMP”. Further, the “cytosolic Ca2+ in platelets” value in [6] (FIG. 10) was “decrease of cytosolic Ca^2+”. Also, in [6] (ultrastructural examination), the “platelet ultrastructure during aggregation” value is “hinders the conformational modifications and granule exocytosis”. In addition, the “amount of immunoreactive ANP and number of ANP-storing granules in atrial myocardiocytes” value in the experiment on atrial myocardiocytes (rats, 10 μg RLX intraperitoneal, twenty minutes after administration) is “strongly decreased”. Besides, in the experiment on atrial myocardiocytes (summary statement), the “secretion of ANP from the atriocytes” value was “inhibit or, depending on the dose, totally suppress”. The “blood flow in the deep artery of the penis” value in the experiment on deep artery of the penis (10 ng into the cavernous bodies, 4 human normal volunteers, 1-6 minutes after injection, versus basal flow) is reported as “striking increase”. For the same compound, the erection entry with deep artery of the penis (two subjects, 5-10 min. after RLX injection) was “erection was also observed”. Also, in experiment [7], the “reduction of cholesterol concentration” value is recorded as “up to 38%” and the “reduction of triglycerides concentration” value is recorded as at most 55%. In addition, the “increase in intracellular cGMP levels” value with BASM cells (10 ng/mL RLX for 1 hour) was 400 % over the values of the untreated cultures. Moreover, the “increase in intracellular cGMP levels” value with BASM cells (100 ng/mL RLX for 1 hour) is on record as 900 % over the values of the untreated cultures. Besides, the “actin cytoskeleton (immunocytochemistry with anti-actin antibodies)” value in the experiment on BASM cells (BASM cells incubated for 4 hours with 100 ng/mL RLX) is given as “induces changes in the actin cytoskeleton”. Further, the “decrease of the rise in intracellular Ca2+ levels evoked by calcium ionophore” value in [2] (10 ng/mL RLX, mast cells) is on record as 41%. Also, in experiment [2] (100 ng/mL RLX, mast cells), the “decrease of the rise in intracellular Ca2+ levels evoked by calcium ionophore” value is reported as 97%. The MC degranulation entry in experiment [2] (mast cells) was “inhibits”. In experiment [2], the “calcium-ionophore-induced and anaphylactic histamine release” value is listed as “inhibits”. In addition, the “calcium-ionophore-induced and anaphylactic histamine release” value in [2] (listed as relaxin) is given as “inhibit or, depending on the dose, totally suppress; also recorded: greatly inhibiting”. For the same compound, in [2] (unstimulated mastocytes), the “basal liberation of histamine by mastocytes” value is recorded as “no effect whatsoever”. Also, the coronary flow entry in [8] is given as “increases significantly”. Besides, in the experiment on heart atria, the “binding to heart atria” value is reported as “binding of RLX to heart atria”; the “rhythm and contractions of the in vitro isolated atria” value was “increase of the rhythm and contractions”.
